The target in assay [1] is T1, C-type lectin domain family 4 member E (Homo sapiens) (UniProt Q9ULY5).
T1 sequence (whole entry): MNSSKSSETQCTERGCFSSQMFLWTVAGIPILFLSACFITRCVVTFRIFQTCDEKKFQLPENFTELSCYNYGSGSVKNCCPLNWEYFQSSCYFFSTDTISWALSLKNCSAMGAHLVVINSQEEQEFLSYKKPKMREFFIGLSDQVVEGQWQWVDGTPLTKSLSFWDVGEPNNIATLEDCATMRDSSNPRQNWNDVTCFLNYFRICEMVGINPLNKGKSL
The experiment in a line: Agonist activity at human mincle coupled with FcRgamma expressed in 2B4-NFAT-GFP reporter cells at 3 nmol/well after 16 hrs by flow cytometric analysis. In kind it is cell-based. For orientation: In flow cytometry, cells or beads pass a laser one at a time.

Assay [2] addresses T2, C-type lectin domain family 4 member E (Mus musculus) (UniProt Q9R0Q8).
T2 sequence (whole entry): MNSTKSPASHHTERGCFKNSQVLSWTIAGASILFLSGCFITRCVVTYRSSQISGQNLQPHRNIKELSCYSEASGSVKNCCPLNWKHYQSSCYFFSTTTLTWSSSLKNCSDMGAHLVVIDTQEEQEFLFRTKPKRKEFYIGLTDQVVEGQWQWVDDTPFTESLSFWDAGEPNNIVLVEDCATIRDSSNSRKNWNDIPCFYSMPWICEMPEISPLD
The experiment in a line: Agonist activity at mouse mincle coupled with FcRgamma expressed in 2B4-NFAT-GFP reporter cells at 3 nmol/well after 16 hrs by flow cytometric analysis. The assay is classed as cell-based.

Each structure is given as a SMILES string. The source made the active and inactive calls. The rule behind the calls is not given here.

Take `CCCCCCC(CCCCCCCCCCC(=O)OC)O[C@@H]1O[C@H](CO)[C@@H](O)[C@H](O)[C@@H]1O` (some centres undefined): the outcome in assay [1] and in assay [2] was inactive.
Take `CCCCCCC(CCCCCCCCCCC(=O)OC)O[C@@H]1O[C@H](CO)[C@@H](O)[C@H](O)[C@@H]1O[C@@H]1O[C@H](CO)[C@@H](O)[C@H](O)[C@@H]1O` (some centres undefined): the outcome in assay [1] and in assay [2] was Active.
`CCCCCCC(CCCCCCCCCCC(=O)OC)O[C@@H]1O[C@H](CO)[C@@H](O)[C@H](O)[C@@H]1O[C@H]1O[C@H](CO)[C@@H](O)[C@H](O)[C@@H]1O` (some centres undefined): the outcome in assay [1] and in assay [2] was Active.
`CCCCCCC(CCCCCCCCCCC(=O)OC)O[C@@H]1O[C@H](CO[C@H]2O[C@H](CO)[C@@H](O)[C@H](O)[C@H]2O)[C@@H](O)[C@H](O)[C@H]1O` (some centres undefined): the result in assay [1] and in assay [2] was inactive.
Turning to `CCCCCCC(CCCCCCCCCCC(=O)OC)O[C@H]1O[C@H](CO)[C@@H](O)[C@H](O)[C@@H]1O` (some centres undefined), the result in assay [1] and in assay [2] was inactive.
In the case of `CCCCCCC(CCCCCCCCCCC(=O)OC)O[C@H]1O[C@H](CO)[C@@H](O)[C@H](O)[C@@H]1O[C@H]1O[C@H](CO)[C@@H](O)[C@H](O)[C@@H]1O` (some centres undefined), the outcome in assay [1] and in assay [2] was Active.
On to `CCCCCCC(CCCCCCCCCCC(=O)OC)O[C@@H]1O[C@H](CO[C@H]2O[C@H](CO)[C@H](O)[C@H](O)[C@H]2O)[C@@H](O)[C@H](O)[C@H]1O` (some centres undefined), for which the outcome in assay [1] and in assay [2] was inactive.
`CCCCCCC(CCCCCCCCCCC(=O)OC)O[C@@H]1O[C@H](CO)[C@H](O)[C@H](O)[C@H]1O` (some centres undefined): the outcome in assay [1] and in assay [2] was inactive.
For `CCCCCCC(CCCCCCCCCCC(=O)OC)O[C@@H]1O[C@H](CO)[C@@H](O)[C@H](O)[C@H]1O` (some centres undefined), the result in assay [1] and in assay [2] was inactive.
Consider `CCCCCCC(CCCCCCCCCCC(=O)OC)O[C@H]1O[C@H](CO)[C@H](O)[C@H](O)[C@H]1O` (some centres undefined), for which the result in assay [1] and in assay [2] was inactive.
For the molecule `CCCCCCC(CCCCCCCCCCC(=O)OC)O[C@@H]1O[C@H](CO[C@@H]2O[C@H](CO)[C@@H](O)[C@H](O)[C@H]2O)[C@@H](O)[C@H](O)[C@H]1O` (some centres undefined), the outcome in assay [2] was Active.
Regarding `CCCCCCC(CCCCCCCCCCC(=O)OC)O[C@@H]1O[C@H](CO)[C@@H](O[C@H]2O[C@H](CO)[C@@H](O)[C@H](O)[C@H]2O)[C@H](O)[C@H]1O` (some centres undefined), the outcome in assay [1] and in assay [2] was inactive.
Take `CCCCCCC(CCCCCCCCCCC(=O)OC)O[C@@H]1O[C@H](CO)[C@@H](O[C@@H]2O[C@H](CO)[C@@H](O)[C@H](O)[C@H]2O)[C@H](O)[C@H]1O` (some centres undefined): the outcome in assay [1] and in assay [2] was inactive.
Turning to `CCCCCCC(CCCCCCCCCCC(=O)OC)O[C@H]1O[C@H](CO)[C@@H](O)[C@H](O)[C@H]1O` (some centres undefined), the outcome in assay [1] and in assay [2] was inactive.
For `CCCCCCC(CCCCCCCCCCC(=O)OC)O[C@H]1O[C@H](CO)[C@@H](O)[C@H](O)[C@@H]1O[C@@H]1O[C@H](CO)[C@@H](O)[C@H](O)[C@@H]1O` (some centres undefined), the result in assay [1] and in assay [2] was Active.

The record behind these values is ChEMBL document CHEMBL4382288, “Synthesis of 12-O-Mono- and Diglycosyl-oxystearates, a New Class of Agonists for the C-type Lectin Receptor Mincle” (ACS Med Chem Lett, 2019).
